{"source": "patent US20260226044A1", "about": "“PREPARATION OF AN S1P RECEPTOR MODULATOR” (Oppilan Pharma Limited, priority 2023, published 2026)", "biological_target": "T1, human S1P1 (Homo sapiens, UniProt P21453)", "T1 construct": "CHO-K1 Gαqi5 cells expression full-length human S1P1; expressed in transfected cells; host or cells: CHO-K1 Gαqi5 cells (membranes)", "T1 sequence (P21453 whole entry)": "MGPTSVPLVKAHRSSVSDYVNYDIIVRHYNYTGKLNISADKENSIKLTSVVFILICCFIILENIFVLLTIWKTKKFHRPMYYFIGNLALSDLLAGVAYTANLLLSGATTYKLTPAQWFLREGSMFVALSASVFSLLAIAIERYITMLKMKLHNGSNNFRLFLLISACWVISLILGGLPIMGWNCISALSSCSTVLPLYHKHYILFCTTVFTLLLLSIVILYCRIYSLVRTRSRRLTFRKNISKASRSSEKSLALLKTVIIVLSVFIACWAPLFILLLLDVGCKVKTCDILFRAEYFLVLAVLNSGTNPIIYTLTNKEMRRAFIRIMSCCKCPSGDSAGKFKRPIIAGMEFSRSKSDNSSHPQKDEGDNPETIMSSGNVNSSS", "test": "GTPγS binding assay (scintillation proximity assay, S1P1 membranes)", "assay_type": "biochemical", "settings": "membranes from CHO-K1 Gαqi5 cells expressing full-length human S1P1; GTPγ35S; 60 minutes incubation", "experimental": "Example 4: GTPyS Binding Assay\nS1P1 membrane is prepared from CHO-K1 Gαqi5 cells expression full-length human S1P1. Scintillation proximity assay (SPA) is performed by incubating membranes, GTPγ^35S, and compounds at various concentrations for 60 minutes. Wheat germ agglutinin-coated SPA beads are added and incubated for 60 minutes before centrifugation and scintillation counting."}
{"smiles": "O=C1CC[C@@H](Oc2cc(Cl)c(-c3noc(-c4cn5cc(C(F)(F)F)cc(Cl)c5n4)n3)cc2Cl)CN1", "note": "[Compound 1, (R)-5-(2,5-dichloro-4-(5-(8-chloro-6-(trifluoromethyl)imidazo[1,2-a]pyridin-2-yl)-1,2,4-oxadiazol-3-yl)phenoxy)piperidin-2-one]", "values": [{"measurement": "EC50", "value": "< 1", "unit": "µM"}]}
